Assay results reported in publication PMC10194981, “Chemosensory protein regulates the behavioural response of Frankliniella intonsa and Frankliniella occidentalis to tomato zonate spot virus–Infected pepper (Capsicum annuum)” (PLOS Pathogens, 2023).

Key:
M. sexta larvae = tested on: M. sexta larvae; set-up: method as in PMID 25261073; details: cited from earlier work
FintCSP1-Ser84Ala = FintCSP1-Ser84Ala (Frankliniella intonsa, UniProt A0A891LVF4, S84A); assay: Fluorescence (1-NPN) binding and competitive binding assay, FintCSP1 mutant
Sequence of FintCSP1-Ser84Ala (A0A891LVF4 entry or part of it S84A): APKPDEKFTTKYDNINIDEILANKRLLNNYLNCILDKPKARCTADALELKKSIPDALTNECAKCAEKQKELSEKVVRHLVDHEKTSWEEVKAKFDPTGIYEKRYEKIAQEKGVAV
Experimental: The binding affinity of FintCSP1 and FoccCSP to the fluorescent probe N-phenyl-1-naphthylamine (1-NPN) was tested using a Spectramax M2 fluorescence spectrometer (Molecular Devices, USA) as reported previously. Volatile compounds and 1-NPN were first dissolved to a concentration of 1 mM in HPLC-grade methanol and dissolved to their indicated final concentration (2–20 μM) to titrate 2 μM protein solutions resuspended in 50 mM Tris-HCl (pH 7.4). The 1-NPN/FintCSP1 or 1-NPN/FoccCSP mixture was excited at 280 nm, and the emission spectra were recorded at 415 nm. The binding constants (Kd) of FintCSP1 or FoccCSP to 1-NPN were calculated by Scatchard analysis using Prism 5 software (GraphPad, La Jolla, CA, USA). Assuming a protein activity of 100% and that the volatile compound binds to the protein in a 1:1 ratio at saturation, the dissociation constants (Ki) of FintCSP1 or FoccCSP for each ligand were calculated according to the IC50 (the concentration when the ligand replaces 50% of the probe) value of the volatile compounds. The Ki values were calculated according to the following equation: Ki = [IC50]/(1 + [1-NPN]/K1-NPN), where [1-NPN] is the free concentration of 1-NPN, and K1-NPN is the Kd of the 1-NPN/FintCSP1 or 1-NPN/FoccCSP.
To verify the key amino acids of FintCSP1 and FoccCSP that bind to cis-3-hexenal, six amino acid residues of FintCSP1 were mutated (Lys26Ala, Phe27Ala, Thr28Ala, Glu67Ala, Ser84Ala, and the negative control residue Val132Ala) and nine amino acid residues of FoccCSP were mutated (Lys26Ala, Phe27Ala, Thr28Ala, Thr29Ala, Tyr31Ala, Asp64Ala, Glu67Ala, Gln87Ala, and the negative control residue Val132Ala) with the Fast Mutagenesis System Kit (Transgen Biotech, Beijing, China) using the pET-30a/FintCSP1 and pET-30a/FoccCSP plasmid DNA as template, respectively. […] After validation by sequencing, each recombinant variant protein was produced and purified as described above, and their binding affinity to cis-3-hexenal was measured as described above.

F. occidentalis = assay: Y-tube olfactometer preference test; type: in vivo, Frankliniella occidentalis; details: dsFoccCSP-injected; vs liquid paraffin control
Experimental: F. intonsa and F. occidentalis preference tests of plant volatile cues were performed using a glass Y-tube olfactometer according to the method described by Wang et al. (2014) with minor modifications. A Y-shaped tube (1-cm inner diameter) consisted of a central tube (10 cm in length) and two arms (10 cm in length, offset by 60°) connected to two different glass odor bottles. One glass odor bottle was 50 cm in height, with a 10-cm inner diameter that contained pepper plants (14-day post-viral infection); the other glass odor bottle was 5 cm in height, with a 3-cm inner diameter for plant VOCs. The airflow in the olfactometer (200 mL/min) was filtered through activated carbon and calibrated using a flow meter at the end of each arm. To remove all visual cues, the Y-tube was positioned horizontally in a black airtight cubic box (90 cm × 60 cm × 40 cm). The tested odor sources (pepper plant VOCs) were enclosed in the odor bottles 5 min prior to each test to allow the odors to fill the arms. Thrips (2-day-old, starved for 1 h) were individually placed in the central tube and allowed to choose between the two arms. […] If the thrips had not made a choice after being placed in the straight arm for 5 min, the insect behaviour was scored as “no selection,” and it was not counted in the total data. […]

F. intonsa = assay: Y-tube olfactometer preference test; type: in vivo, Frankliniella intonsa
Experimental: F. intonsa and F. occidentalis preference tests of plant volatile cues were performed using a glass Y-tube olfactometer according to the method described by Wang et al. (2014) with minor modifications. A Y-shaped tube (1-cm inner diameter) consisted of a central tube (10 cm in length) and two arms (10 cm in length, offset by 60°) connected to two different glass odor bottles. One glass odor bottle was 50 cm in height, with a 10-cm inner diameter that contained pepper plants (14-day post-viral infection); the other glass odor bottle was 5 cm in height, with a 3-cm inner diameter for plant VOCs. The airflow in the olfactometer (200 mL/min) was filtered through activated carbon and calibrated using a flow meter at the end of each arm. To remove all visual cues, the Y-tube was positioned horizontally in a black airtight cubic box (90 cm × 60 cm × 40 cm). The tested odor sources (pepper plant VOCs) were enclosed in the odor bottles 5 min prior to each test to allow the odors to fill the arms. Thrips (2-day-old, starved for 1 h) were individually placed in the central tube and allowed to choose between the two arms. When the thrips had climbed over 2/3 of the side arm and stayed there for more than 30 s, it was considered to have made a selection. If the thrips had not made a choice after being placed in the straight arm for 5 min, the insect behaviour was scored as “no selection,” and it was not counted in the total data. The direction of the Y-tube arms and the silicone tubes were adjusted after five tested thrips to eliminate the influence of position. The Y-tube was replaced after 10 tested thrips to eliminate the possible influence of existing odors on thrips behaviour. Each treatment consisted of 20 thrips, with three replicates per treatment.
The FintCSP1, FintCSP2, FintOBP, FintOR, FoccCSP, and enhanced green fluorescent protein (EGFP) coding sequences were obtained from GenBank under accession numbers MT199111, MT211602, OK067245, MT211603, AEP27186.1, and U55761.1, respectively. Primers were designed using Primer Premier 5.0, and the T7 promoter sequence (5′-[…]-3′) was added to the 5′ end of each primer (S1 Table). DNA fragments containing T7 promoter sequences were amplified by PCR using pEASY-T1/target gene or pUC-EGFP (preserved in the laboratory) plasmid DNA as template. Then, a double-stranded RNA (dsRNA) was produced from each target gene using the HiScribe T7 Quick High Yield RNA Synthesis Kit (New England Biolabs) according to the manufacturer’s instructions. […]

SMILES: CC/C=C\CC=O [cis-3-hexenal]
- effect on M. sexta larvae (in words) (M. sexta larvae): feeding stimulant
- IC50 (FintCSP1-Ser84Ala): 41.3 ± 3.96 µM
- Ki (FintCSP1-Ser84Ala): 29.7 ± 2.84 µM
- preference of dsFoccCSP-silenced F. occidentalis (in words) (F. occidentalis): no clear preference
- individuals that recognized the compound (F. intonsa; dsEGFP-treated F. intonsa, vs liquid paraffin control): 73.3%
- preference of FintCSP1-silenced thrips (in words) (F. intonsa; dsFintCSP1-injected F. intonsa, vs liquid paraffin control): no preference
- preference of F. intonsa in Y-tube olfactometer (in words) (F. intonsa; volatile compound vs liquid paraffin control, n = 60): reached statistical significance
